“And” between values parts separate entries of the source, which are not always exact repeats. Equal entries are not always repeated. “Also recorded” adds a separate entry of the source.
Experiments:
[1] = Energy balance (carcass energy, food/energy intake, energy expenditure) of overweight rats treated 10 days; assay type: in vivo, male Wistar rats; settings: for carcass energy content (ranking among groups): end of 10-day treatment, bomb calorimeter; for decrease in food consumption / loss of energy from the internal stores / net contribution of internal stores to energy expenditure: overweight male Wistar rats, 10-day daily gavage, same doses
Text: (§1) Forty-five day-old male Wistar rats were used. The rats were kept in collective cages in a light cycle, temperature, and humidity-controlled environment. They were fed tap water and a self-selected cafeteria diet (containing an excess of tasty, energy-dense foods, as well as standard chow) for 45 additional days. Then they were subjected to a 5-day diet adaptation period, in which they had rat chow as the sole food available. At this point, the rats weighed 350-370 g and had plenty of body fat. Maintaining the availability of rat chow (daily consumption by the group was recorded) and tap water, body weight was recorded daily. The animals were given a daily gavage of either 0.2 mL of sunflower oil or the same vehicle containing oleoyl-estrone.
(§2) Six groups of animals were used: • a) controls, receiving a daily gavage of 0.2 mL of sunflower oil; • b) oleoyl-estrone, receiving the same daily gavage of 0.2 mL of sunflower oil, but containing oleoyl-estrone, to a a daily dose of 10 micromol per kg of body weight; • c) dexfenfluramine: receiving the same daily gavage of 0.2 mL of sunflower oil, and a second gavage of 0.2 mL of dexfenfluramine in water, to a a daily dose of 3 mg per kg of body weight; • d) dexfenfluramine plus oleoyl-estrone: receiving both gavages, 0.2 mL of oil and oleoyl-estrone (to a daily dose of 10 micromol per kg of body weight) and 0.2 mL of water and dexfenfluramine, to a daily dose of 3 mg per kg of body weight; • e) sibutramine: receiving the same daily gavage of 0.2 mL of sunflower oil, and a second gavage of 0.2 mL of sibutramine in water, to a a daily dose of 5 mg per kg of body weight; • f) sibutramine plus oleoyl-estrone: receiving both gavages, 0.2 mL of oil and oleoyl-estrone (to a daily dose of 10 micromol per kg of body weight) and 0.2 mL of water and sibutramine, to a daily dose of 5 mg per kg of body weight.
(§3) The treatment was maintained up to 10 days, when the animals were killed by decapitation, and their blood and carcass were used for analyses. Plasma was separated from the blood. The plasma was preserved frozen until its utilization for the estimation of glucose, cholesterol, triacylglycerol, free fatty acids, and insulin levels using standard methods, as well as for the estimation of alanine- and aspartate-transaminase activities.
(§4) Samples of the rat paste were dried and used for the estimation of their caloric content using a bomb calorimeter. The initial values for lipid content were calculated from the corresponding in vivo body weights at the beginning of the experiment and applying to all the animals the mean percentage of lipid content found in the control (vehicle only) group at the end of the experiment. This same procedure was used to determine the overall energy content of the carcasses by using the experimentally found energy content of the rats in the control group. Likewise, the energy content of the pellet diet was also measured and used to estimate the energy intake of the animals.
Energy expenditure (Ee) was estimated as the difference between energy intake (Ei) and accrual (Ea), since: Ei=Ee±Ea.

[2] = Plasma composition of rats after 10 days of treatment; assay type: in vivo, male Wistar rats; settings: after 10-day treatment, compared with other groups
Text: as §1, with “oleoyl-estrone. […]” for “oleoyl-estrone.”

[3] = Body weight and lipid change of overweight rats treated 10 days by daily gavage; assay type: in vivo; settings: overweight male Wistar rats, 10-day daily gavage; oleoyl-estrone 10 micromol/kg, dexfenfluramine 3 mg/kg, sibutramine 5 mg/kg
Text: as §1, §2, §3
The rat corpses, partially exsanguinated were dissected. The stomach and intestines were cleaned of their contents. The remaining carcass was sealed into polyethylene bags, autoclaved and blended to a fine paste. This paste was analysed for lipid content by extraction using trichloromethane/methanol and corrected by its water content. Lipid content in the paste was referred to whole in vivo body weight for comparison.
as §4

| Structure (SMILES) | carcass energy content (ranking among groups) [1] | decrease in food consumption [1] [%] | loss of energy from the internal stores [1] [kJ] | plasma triacylglycerol levels [2] | loss of lipid (body lipid) [3] [%] | net contribution of internal stores to energy expenditure [1] [%] | loss of body weight [3] |
| --- | --- | --- | --- | --- | --- | --- | --- |
| CCCCCCCC/C=C\CCCCCCCC(=O)Oc1ccc2c(c1)CC[C@@H]1[C@@H]2CC[C@]2(C)C(=O)CC[C@@H]12 [oleoyl-estrone, [3(Z)]-3-[(1-oxo-9-octadecenyl)oxy]-estra-1,3,5(10)-trien-17-one] | smaller | 32 | 357 | lower; also recorded: decreased | 13 | – | – |
| CCN[C@@H](C)Cc1cccc(C(F)(F)F)c1 [dexfenfluramine] | – | 23 | 546 | – | ~16 | ~20 | 3% and 2.6% |
| CC(C)CC(N(C)C)C1(c2ccc(Cl)cc2)CCC1 (stereo not shown) [sibutramine] | smaller | 26 | 403 | – | 15 | ~20 | 4% and 3.8% |

Source: patent publication US20060258631A1, “Methods of using fatty-acid esters of estrogens and serotonin reuptake inhibiting compounds for reducing the body weight of a mammal and compositions containing the same” (Oleoyl-Estrone Development SL, priority 2004, published 2006)
